The results in this text go back to patent US12152012B2, “BRAG2 inhibitors and applications thereof” (CENTRE NATIONAL DE LA RECHERCHE SCIENTIFIQUE, priority 2018, dated 2024).

The assay concerns the target T1, BRAG2 (activation of myristoylated Arf6) (Homo sapiens, UniProt Q6DN90).
T1 construct: human BRAG2^Sec7 (390-594) and BRAG2^Sec7PH (390-811); made in house
Kind of assay: Nucleotide exchange kinetics on liposomes, activation of myristoylated Arf6. Format: biochemical. Conditions: 50 μM. Here is the method: FIG. 2. Bragsin is a specific inhibitor of the ArfGEF BRAG2 • a. Bragsin1 has no effect on the Sec7 domain of human ArfGEFs in solution. Nucleotide exchange kinetics were measured by fluorescence kinetics in the presence of Bragsin1 (50 μM) or DMSO using purified Sec7 domains and a truncated version of Arf1 (D17Arf1), which can be activated in solution. […] Nucleotide exchange kinetics were determined in the presence of Bragsin1 (50 μM) or DMSO with ArfGEF constructs carrying membrane-binding domains and myristoylated Arf1. […] was artificially tethered to liposomes by a C-terminal hexahistidine tag as described in (Peurois, F. et al. Biochem J 474, 1259-1272 (2017). Representative kinetic profiles are given in FIG. 15. • c. Bragsin1 inhibits the activation of myristoylated Arf6 by BRAG2 on liposomes. Experiments were carried out as in FIG. 2b. Representative kinetic profiles are given in FIG. 16. • d. Dose-response of Bragsin1 and Bragsin2 towards myristoylated Arf1 and BRAG2 on liposomes. Experiments were carried out as in FIG. 2b. • e. Silencing of BRAG2 phenocopies the effect of Bragsin2 on the TGN46 compartment. […]
The effect of Bragsin1 on the GEF efficiency of representative human ArfGEFs was evaluated by fluorescence kinetics using highly purified recombinant Arf GTPases and ArfGEFs. […]

T1 sequence (Q6DN90 512-933): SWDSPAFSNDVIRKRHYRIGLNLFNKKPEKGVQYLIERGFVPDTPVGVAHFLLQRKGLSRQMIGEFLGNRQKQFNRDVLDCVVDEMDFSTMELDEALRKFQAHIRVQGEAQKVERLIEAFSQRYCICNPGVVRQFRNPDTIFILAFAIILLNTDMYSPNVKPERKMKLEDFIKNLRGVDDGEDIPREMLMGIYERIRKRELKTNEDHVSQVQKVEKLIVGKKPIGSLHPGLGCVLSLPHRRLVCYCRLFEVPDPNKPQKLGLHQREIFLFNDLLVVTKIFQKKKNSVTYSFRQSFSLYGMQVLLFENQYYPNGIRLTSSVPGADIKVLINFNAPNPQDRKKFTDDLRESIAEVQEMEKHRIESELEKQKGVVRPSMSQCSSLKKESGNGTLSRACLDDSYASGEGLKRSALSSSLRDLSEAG

Turning to `Cc1ccc2oc(C(F)(F)F)cc(=O)c2c1[N+](=O)[O-]` [Bragsin1, 6-methyl-5-nitro-2-(trifluoromethyl)-4H-chromen-4-one], the “Inhibition of BRAG2-mediated activation of myristoylated Arf6” value is on record as “inhibits”.
